Data as given in patent US20180215787A1, “Chromogenic And Fluorogenic Peptide Substrates For The Detection Of Serine Protease Activity” (RUPRECHT-KARLS-UNIVERSITÄT HEIDELBERG, priority 2015, published 2018).

Experiments:
[1] = target: T1, factor Xa (Bos taurus, UniProt P00743); assay: Kinetic measurements (Michaelis-Menten) of factor Xa substrates; format: biochemical
Method: (§1) Commercial substrate 1a, depicted in FIG. 2, was used as reference in the kinetic measurements. The kinetic values KM, kcat and kcat/KM were established for the fluorogenic compound 1 using Human Thrombin. In order to compare the results of 1 and 1a, the absorption of the released chromophores was measured during the enzymatic reaction (570 nm for resorufin and 380 nm for p-nitroaniline).
(§2) The same parameters were also determined for 1 by measuring the emission of resorufin at 583 nm and similar values to the ones obtained from absorption were found (FIG. 5A).
A similar conjugate, with the same peptide sequence, but having p-nitroanilide as reporter, has a much higher KM (40 μM) and the enzyme has poorer catalytic efficiency for this substrate (2.7×10^6 M^−1 s^−1). Thus, compound 2 of the present invention performs better than the best factor Xa substrate so far reported.
The kinetic parameters were determined as described for the other substrates (cf. Example 4). The results of Michaelis-Menten kinetic is depicted in FIG. 13.

[2] = cited from earlier work
[3] = target: BSA (Bos taurus, UniProt P02769); assay: Fluorescence specificity assay, BSA; format: biochemical; settings: Compound 1 5 μM, BSA 100 pM
Sequence of BSA (P02769 25-607): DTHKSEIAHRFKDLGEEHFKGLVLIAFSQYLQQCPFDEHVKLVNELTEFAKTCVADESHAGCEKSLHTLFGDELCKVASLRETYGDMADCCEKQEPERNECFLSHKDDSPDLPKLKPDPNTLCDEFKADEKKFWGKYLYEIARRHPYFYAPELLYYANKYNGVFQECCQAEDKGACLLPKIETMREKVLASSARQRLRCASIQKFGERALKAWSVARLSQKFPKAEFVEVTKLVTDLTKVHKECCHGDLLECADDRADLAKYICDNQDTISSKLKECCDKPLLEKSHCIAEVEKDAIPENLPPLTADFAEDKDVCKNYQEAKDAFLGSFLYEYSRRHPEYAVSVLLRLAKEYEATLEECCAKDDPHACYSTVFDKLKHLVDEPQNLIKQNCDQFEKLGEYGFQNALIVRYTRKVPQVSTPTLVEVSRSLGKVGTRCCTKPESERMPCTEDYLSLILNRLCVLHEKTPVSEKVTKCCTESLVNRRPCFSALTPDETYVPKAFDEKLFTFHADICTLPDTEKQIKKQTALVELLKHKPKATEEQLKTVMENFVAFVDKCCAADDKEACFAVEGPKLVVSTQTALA
Method: (§3) The enzymatic reactions were carried out in 50 mM Tris buffer pH 8.3 and 130 mM NaCl.
(§4) the specificity of Compound 1 of the present invention toward thrombin was tested. Compound 1 (5 μM) was incubated in the presence of thrombin (100 pM) and some possible interfering proteases and proteins, like trypsin, factor Xa, myoglobin, cytochrome C and BSA (100 pM). The increase of fluorescence in response to factor Xa, myoglobin, cytochrome C and BSA was negligible (FIG. 6). […] A commercial assay can detect 1 pM thrombin, by fishing it out of plasma samples using microwells coated with DNA-aptamer. The AMC-based substrate is converted by thrombin to fluorescent product after the enrichment step. The fluorescence assay according to the present invention allowed the detection of thrombin at the concentrations as low as 0.5 pM in water solution (FIG. 7), which was achieved without any enrichment step.

[4] = target: cytochrome C (Homo sapiens, UniProt P99999); assay: Fluorescence specificity assay, cytochrome C; format: biochemical; settings: Compound 1 5 μM, cytochrome C 100 pM
Sequence of cytochrome C (P99999 whole entry, species assumed): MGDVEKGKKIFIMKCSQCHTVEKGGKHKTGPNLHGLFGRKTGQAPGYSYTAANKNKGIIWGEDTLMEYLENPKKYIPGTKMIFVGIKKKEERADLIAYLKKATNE
Method: as §3, §4

[5] = target: T2, thrombin (Homo sapiens, UniProt P00734); assay: Kinetic measurements with Human Thrombin; format: biochemical; settings: absorption of released chromophore, 570 nm
Method: as §1, §2

[6] = target: T2, thrombin; assay: Fluorescence assay to evaluate specificity of compound 1 toward thrombin; format: biochemical; settings: Compound 1 5 μM, proteases 100 pM
Method: as §3, §4

[7] = Stability toward spontaneous hydrolysis in thrombin buffer; format: physicochemical; settings: incubation with thrombin buffer (Tris pH 8.3), 24° C.
Method: A. Absorption spectra of resorufin and compound 1 of the present invention; B. Enzymatic hydrolysis of 1 (5 μM) in the presence of thrombin (100 pM) with Tris buffer pH 8.3 (λex=570 nm; λem=583 nm) at 24° C.; inset: full emission spectra recorded after 60 min, with and without enzyme; C.
The photophysical properties of compound 1 of the present invention, as well as its enzymatic conversion to fluorescent product resorufin were investigated. […] It also has a negligible emission, if exited either at its maxima (480 nm) or at resorufin maxima (570 nm).

[8] = tested on: trypsin; assay: Fluorescence specificity assay, trypsin; format: biochemical; settings: Compound 1 5 μM, trypsin 100 pM
Method: as §3, §4

[9] = target: T2, thrombin; assay: Fluorescence assay for determination of thrombin in water (LOD); format: biochemical; settings: in water solution, without enrichment step
Method: The mean change of resorufin fluorescence dF/min is plotted versus the corresponding thrombin concentration (in pM).
as §4

[10] = target: T3, myoglobin (Homo sapiens, UniProt P02144); assay: Fluorescence specificity assay, myoglobin; format: biochemical; settings: Compound 1 5 μM, myoglobin 100 pM
T3 sequence (P02144 1-154): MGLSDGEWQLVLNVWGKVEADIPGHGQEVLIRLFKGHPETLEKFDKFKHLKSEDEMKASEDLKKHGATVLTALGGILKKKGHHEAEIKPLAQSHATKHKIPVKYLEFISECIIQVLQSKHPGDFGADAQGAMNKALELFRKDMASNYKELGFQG
Method: as §3, §4

[11] = target: T1, factor Xa; assay: Fluorescence specificity assay, factor Xa; format: biochemical; settings: Compound 1 5 μM, factor Xa 100 pM
Method: as §3, §4

[12] = factor Xa substrate, Michaelis-Menten kinetic

T1 sequence (P00743 234-492 limits assumed): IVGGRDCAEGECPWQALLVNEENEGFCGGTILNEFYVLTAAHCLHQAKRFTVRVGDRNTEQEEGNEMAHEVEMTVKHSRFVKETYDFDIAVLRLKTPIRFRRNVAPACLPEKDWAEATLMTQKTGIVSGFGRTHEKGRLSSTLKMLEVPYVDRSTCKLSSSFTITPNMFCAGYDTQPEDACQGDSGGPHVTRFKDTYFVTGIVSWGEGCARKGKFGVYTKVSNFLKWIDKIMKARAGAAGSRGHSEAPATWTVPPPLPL
T1 sequence (P00743 41-180 partner limits assumed): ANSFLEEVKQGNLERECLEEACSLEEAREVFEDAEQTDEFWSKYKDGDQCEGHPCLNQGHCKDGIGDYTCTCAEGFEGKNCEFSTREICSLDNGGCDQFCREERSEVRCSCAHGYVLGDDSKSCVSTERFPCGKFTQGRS

Cbz-D-Arg-Gly-Arg-PABA-Res [Compound 2a]
Km [1, 12]: 5.5 µM
kcat [1, 12]: 4.9 s⁻¹

O=c1ccc2nc3ccc(O)cc3oc-2c1 [resorufin, 7-Hydroxy-3H-phenoxazin-3-one]
pKa [2]: ~6.0

BzIs-D-Arg-Gly-Arg-PABA-Res [Compound 2]
KM value (in words) ([1]; FIG. 5B): very low KM value
catalytic efficiency (in words) ([1]; FIG. 5B): excellent catalytic efficiency
turnover number kcat (in words) ([1]; FIG. 5B): relatively good turnover number

D-Phe-Pro-Arg-PABA-Res [Compound 1]
increase of fluorescence in response to BSA [3]: negligible
increase of fluorescence in response to cytochrome C [4]: negligible
thrombin turnover compared with commercial substrate 1a [5]: did not suffer at all
specificity for thrombin compared to factor Xa [6]: 400 times
selectivity for thrombin over trypsin ([6]; 50 mM Tris pH 8.3, 130 mM NaCl): 7.5 fold
spontaneous hydrolysis / chemical stability [7]: no spontaneous hydrolysis
hydrolysis by trypsin (rate compared to thrombin) [8]: slower rate compared to thrombin
lowest detectable thrombin concentration [9]: 0.5 pM
increase of fluorescence in response to myoglobin [10]: negligible
increase of fluorescence in response to factor Xa [11]: negligible
